Measured values taken from US11053204B2, “Pyrimidinyloxy benzene derivatives as herbicides” (FMC Corporation, priority 2015, dated 2021).

Assays:
Type in all cases: in vivo
[1] = system: wheat (winter wheat, Triticum aestivum); test: Test C preemergence, plant response rating; details: Preemergence
In short: (§1)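 Preemergence: seeds sown in loam–sand blend or silt loam and sprayed with test chemicals in a non-phytotoxic surfactant-containing solvent. Postemergence: potted plants at 2–18 cm (1–4-leaf stage) sprayed with the same formulation. After 13–15 d in greenhouse, visual rating versus controls on 0 (no effect) to 100 (complete control) scale.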

[2] = system: foxtail, giant (giant foxtail, Setaria faberii); test: Test C preemergence, plant response rating; details: Preemergence
In short: as §1

[3] = system: velvetleaf (Abutilon theophrasti); test: Test C preemergence, plant response rating; details: Preemergence
In short: as §1

[4] = system: morningglory (Ipomoea coccinea); test: Test C preemergence, plant response rating; details: Preemergence
In short: as §1

[5] = system: oilseed rape (Brassica napus); test: Test C preemergence, plant response rating; details: Preemergence
In short: as §1

[6] = system: blackgrass (Alopecurus myosuroides); test: Test C preemergence, plant response rating; details: Preemergence
In short: as §1

corn (Zea mays) = test: Test C preemergence, plant response rating; details: Preemergence
In short: as §1

[7] = system: nutsedge, yellow (yellow nutsedge, Cyperus esculentus); test: Test C preemergence, plant response rating; details: Preemergence
In short: as §1

[8] = system: ryegrass, Italian (Italian ryegrass, Lolium multiflorum); test: Test C preemergence, plant response rating; details: Preemergence
In short: as §1

[9] = system: lambsquarters (Chenopodium album); test: Test C preemergence, plant response rating; details: Preemergence
In short: as §1

soybean (Glycine max) = test: Test C preemergence, plant response rating; details: Preemergence
In short: as §1

[10] = system: ragweed (common ragweed, Ambrosia elatior); test: Test C preemergence, plant response rating; details: Preemergence
In short: as §1

[11] = system: crabgrass, large (large crabgrass, Digitaria sanguinalis); test: Test C preemergence, plant response rating; details: Preemergence
In short: as §1

[12] = system: waterhemp (common waterhemp, Amaranthus rudis); test: Test C preemergence, plant response rating; details: Preemergence
In short: as §1

[13] = system: wheat (winter wheat, Triticum aestivum); test: Test C postemergence, plant response rating
In short: as §1

[14] = system: foxtail, giant (giant foxtail, Setaria faberii); test: Test C postemergence, plant response rating; details: for Foxtail, Giant plant response rating: scale 0 to 100 (0 no effect, 100 complete control)
In short: as §1

[15] = system: velvetleaf (Abutilon theophrasti); test: Test C postemergence, plant response rating
In short: as §1

[16] = system: morningglory (Ipomoea coccinea); test: Test C postemergence, plant response rating; details: for Morningglory plant response rating: scale 0 to 100 (0 no effect, 100 complete control)
In short: as §1

[17] = system: oilseed rape (Brassica napus); test: Test C postemergence, plant response rating; details: for Oilseed Rape plant response rating: scale 0 to 100 (0 no effect, 100 complete control)
In short: as §1

[18] = system: blackgrass (Alopecurus myosuroides); test: Test C postemergence, plant response rating; details: for Plant response rating, Blackgrass: scale 0 to 100; for Blackgrass plant response rating: scale 0 to 100 (0 no effect, 100 complete control)
In short: as §1

[19] = 125 g ai/ha, scale 0 to 100 (0 no effect, 100 complete control)

## FC(F)(F)CCCc1c(Br)cccc1Oc1ncc(Cl)cn1 [Compound 89]
[1]; 125 g ai/ha, scale of 0 to 100
  Plant response rating, Wheat: 5
[1]; 31 g ai/ha, scale 0 to 100
  Plant response rating, Wheat: 0
[1]; 62 g ai/ha, scale 0 to 100
  Plant response rating, Wheat: 0
[2]; 125 g ai/ha, scale of 0 to 100
  Plant response rating, Foxtail, Giant: 85
[2]; 31 g ai/ha, scale 0 to 100
  Plant response rating, Foxtail, Giant: 5
[2]; 62 g ai/ha, scale 0 to 100
  Plant response rating, Foxtail, Giant: 60
[3]; 125 g ai/ha, scale of 0 to 100
  Plant response rating, Velvetleaf: 60
[3]; 31 g ai/ha, scale 0 to 100
  Plant response rating, Velvetleaf: 20
[3]; 62 g ai/ha, scale 0 to 100
  Plant response rating, Velvetleaf: 25
[4]; 125 g ai/ha, scale of 0 to 100
  Plant response rating, Morningglory: 20
[4]; 31 g ai/ha, scale 0 to 100
  Plant response rating, Morningglory: 0
[4]; 62 g ai/ha, scale 0 to 100
  Plant response rating, Morningglory: 5
[5]; 125 g ai/ha, scale of 0 to 100
  Plant response rating, Oilseed Rape: 15
[5]; 31 g ai/ha, scale 0 to 100
  Plant response rating, Oilseed Rape: 0
[5]; 62 g ai/ha, scale 0 to 100
  Plant response rating, Oilseed Rape: 0
[6]; 125 g ai/ha, scale of 0 to 100
  Plant response rating, Blackgrass: 90
[6]; 16 g ai/ha, scale 0 to 100
  Plant response rating, Blackgrass: 5
[6]; 31 g ai/ha, scale 0 to 100
  Plant response rating, Blackgrass: 15
[6]; 62 g ai/ha, scale 0 to 100
  Plant response rating, Blackgrass: 85
Corn (Zea mays); 125 g ai/ha, scale of 0 to 100
  Plant response rating, Corn: 10
Corn (Zea mays); 16 g ai/ha, scale 0 to 100
  Plant response rating, Corn: 0
Corn (Zea mays); 31 g ai/ha, scale 0 to 100
  Plant response rating, Corn: 0
Corn (Zea mays); 62 g ai/ha, scale 0 to 100
  Plant response rating, Corn: 0
[7]; 125 g ai/ha, scale of 0 to 100
  Plant response rating, Nutsedge, Yellow: 0
[7]; 31 g ai/ha, scale 0 to 100
  Plant response rating, Nutsedge, Yellow: 0
[7]; 62 g ai/ha, scale 0 to 100
  Plant response rating, Nutsedge, Yellow: 0
[8]; 125 g ai/ha, scale of 0 to 100
  Plant response rating, Ryegrass, Italian: 40
[8]; 31 g ai/ha, scale 0 to 100
  Plant response rating, Ryegrass, Italian: 5
[8]; 62 g ai/ha, scale 0 to 100
  Plant response rating, Ryegrass, Italian: 15
[9]; 125 g ai/ha, scale of 0 to 100
  Plant response rating, Lambsquarters: 65
[9]; 31 g ai/ha, scale 0 to 100
  Plant response rating, Lambsquarters: 0
[9]; 62 g ai/ha, scale 0 to 100
  Plant response rating, Lambsquarters: 0
Soybean (Glycine max); 125 g ai/ha, scale of 0 to 100
  Plant response rating, Soybean: 10
Soybean (Glycine max); 31 g ai/ha, scale 0 to 100
  Plant response rating, Soybean: 5
Soybean (Glycine max); 62 g ai/ha, scale 0 to 100
  Plant response rating, Soybean: 5
[10]; 125 g ai/ha, scale of 0 to 100
  Plant response rating, Ragweed: 50
[10]; 31 g ai/ha, scale 0 to 100
  Plant response rating, Ragweed: 0
[10]; 62 g ai/ha, scale 0 to 100
  Plant response rating, Ragweed: 5
[11]; 125 g ai/ha, scale of 0 to 100
  Plant response rating, Crabgrass, Large: 98
[11]; 16 g ai/ha, scale 0 to 100
  Plant response rating, Crabgrass, Large: 75
[11]; 31 g ai/ha, scale 0 to 100
  Plant response rating, Crabgrass, Large: 98
[11]; 62 g ai/ha, scale 0 to 100
  Plant response rating, Crabgrass, Large: 100
[12]; 125 g ai/ha, scale of 0 to 100
  Plant response rating, Waterhemp: 100
[12]; 31 g ai/ha, scale 0 to 100
  Plant response rating, Waterhemp: 85
[12]; 62 g ai/ha, scale 0 to 100
  Plant response rating, Waterhemp: 100
[13]; 16 g ai/ha, scale of 0 to 100
  Plant response rating, Wheat: 0
[13]; 31 g ai/ha, scale 0 to 100
  Plant response rating, Wheat: 10
[13]; [19]
  Wheat plant response rating: 15
[14]; 16 g ai/ha, scale of 0 to 100
  Plant response rating, Foxtail, Giant: 10
[14]; 31 g ai/ha, scale 0 to 100
  Plant response rating, Foxtail, Giant: 10
[14]; 62 g ai/ha
  Foxtail, Giant plant response rating: 10
[14]; 125 g ai/ha
  Foxtail, Giant plant response rating: 20
[15]; 16 g ai/ha, scale of 0 to 100
  Plant response rating, Velvetleaf: 20
[15]; 31 g ai/ha, scale 0 to 100
  Plant response rating, Velvetleaf: 35
[15]; [19]
  Velvetleaf plant response rating: 70
[16]; 16 g ai/ha, scale of 0 to 100
  Plant response rating, Morningglory: 5
[16]; 31 g ai/ha, scale 0 to 100
  Plant response rating, Morningglory: 15
[16]; 62 g ai/ha
  Morningglory plant response rating: 25
[16]; 125 g ai/ha
  Morningglory plant response rating: 55
[17]; 16 g ai/ha, scale of 0 to 100
  Plant response rating, Oilseed Rape: 60
[17]; 31 g ai/ha, scale 0 to 100
  Plant response rating, Oilseed Rape: 95
[17]; 62 g ai/ha
  Oilseed Rape plant response rating: 90
[17]; 125 g ai/ha
  Oilseed Rape plant response rating: 100
[18]; 16 g ai/ha
  Plant response rating, Blackgrass: 10
[18]; 31 g ai/ha
  Plant response rating, Blackgrass: 15
[18]; 62 g ai/ha
  Blackgrass plant response rating: 30
[18]; 125 g ai/ha
  Blackgrass plant response rating: 45
